Entries after “also recorded” stand apart in the source; their conditions may differ. Bridges are numbered along the chain shown (N, C = ends). Roman numbers before positions name the chains, in order. Where no end group is shown, it is not given here.
What was measured:
[1] = molecular target: T1, FGFR/KL-complex (Homo sapiens, UniProt Q9UEF7); assay: FGF23-antagonism measured by relative p-Erk levels in 293/KL cells; format: cell-based; details: for IC50: p-Erk
T1 construct: expressed in transfected cells; host or cells: 293T HEK cells overexpressing human KL (293/KL)
T1 sequence (Q9UEF7 34-1012): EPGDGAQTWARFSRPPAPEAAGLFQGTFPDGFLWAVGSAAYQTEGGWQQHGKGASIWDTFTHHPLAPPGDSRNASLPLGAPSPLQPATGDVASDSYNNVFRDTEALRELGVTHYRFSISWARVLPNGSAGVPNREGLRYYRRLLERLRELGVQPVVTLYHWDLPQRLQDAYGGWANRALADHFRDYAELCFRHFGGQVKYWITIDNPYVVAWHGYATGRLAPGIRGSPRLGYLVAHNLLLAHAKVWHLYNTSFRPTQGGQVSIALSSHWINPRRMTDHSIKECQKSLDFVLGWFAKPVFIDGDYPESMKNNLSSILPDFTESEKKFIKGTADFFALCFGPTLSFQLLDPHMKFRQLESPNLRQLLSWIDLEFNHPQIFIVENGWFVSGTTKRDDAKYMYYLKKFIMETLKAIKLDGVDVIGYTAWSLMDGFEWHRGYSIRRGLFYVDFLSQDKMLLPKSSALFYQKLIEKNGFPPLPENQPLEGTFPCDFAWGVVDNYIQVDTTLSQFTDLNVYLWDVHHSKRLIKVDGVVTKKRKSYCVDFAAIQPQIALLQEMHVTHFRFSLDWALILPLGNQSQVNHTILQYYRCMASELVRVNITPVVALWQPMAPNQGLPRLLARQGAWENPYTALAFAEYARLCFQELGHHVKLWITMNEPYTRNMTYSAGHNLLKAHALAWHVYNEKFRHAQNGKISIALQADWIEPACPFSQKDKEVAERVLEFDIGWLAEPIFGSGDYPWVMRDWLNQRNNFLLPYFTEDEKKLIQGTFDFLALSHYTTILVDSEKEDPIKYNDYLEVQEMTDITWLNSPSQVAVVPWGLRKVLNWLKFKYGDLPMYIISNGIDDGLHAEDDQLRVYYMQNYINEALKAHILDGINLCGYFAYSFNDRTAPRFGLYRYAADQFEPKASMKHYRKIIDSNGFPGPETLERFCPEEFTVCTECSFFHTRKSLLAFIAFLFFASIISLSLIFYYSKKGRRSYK
From the text: FIGS. 1A-1F Structure activity analysis among the two KL-interacting peptides C26 and C28. FIG. 1A provides a schematic representation of FGF23 showing the Amino terminal FGF23 core (amino acids 25-179) and the C-terminal portion that comprises two Klotho interaction sites “C26” (amino acids 180-205) and “C28” (amino acids 212-239); FIGS. 1B-1F are graphs presenting FGF23-antagonism measured by the relative p-Erk levels in 293/KL cells with increasing doses of the peptide antagonist. (FIG. 1B) compares C26 and C28; FIG. 1C is a graph showing the effect of the substitutions from C28 sequence into the C26 sequence on the peptide activity, comparing peptides C26(●), 1(▪), 2( ? ), 3(▴), and 4(○); FIG. 1D is a graph showing the effect of the substitutions from C28 sequence in the C26 sequence on the peptide activity, C28(●), 5(▪), 6( ? ), and 7(▴); FIGS. 1E & 1F are graphs showing the activity of shortened FGF23 C-terminal peptide antagonist in vitro. For FIG. 1E peptides C26(●), 8(▪), 9( ? ) are compared; For FIG. 1F peptides 6(●), 10(▪), 11( ? ), and 12(▴).
FIGS. 4A & 4B provide data relating to mutation of the C-terminal FGF23 peptides to assess their KL-interaction site by study of FGF23-activity antagonism in 293/KL cells. FGF23 C-terminal peptides tested for their ability to block FGF23-signaling measured by relative p-Erk levels are shown in FIG. 4A for peptides C26 (●), C28(▪), C26A1(T ? , FGF23^180-205, A^188), C28A2(▴, FGF23^212-239, A^222); and in FIG. 4B for peptides C72(●, FGF23^180-251), C72A1(▪, FGF23^180-251, A^188), C72 A2 ( ? , FGF23^180-251, A^222), C72A1A2(▴, FGF23^180-251, A^188,222). […]

[2] = tested on: FGFR/KL complex; assay: FGF23-signaling activity (stimulation of Erk-phosphorylation) in 293/KL cells; format: cell-based, human
Protocol: (§1) FIGS. 5A-5D provide data relating to the activities of FGF23-analogs containing one or two active KL-interaction sites by in vitro and in vivo methods. […] FIGS. 5B-5D are scatter plots presenting an in vivo assessment of FGF23-activity in mice. WT mice were treated with 0.5 mg/kg body weight with either FGF23, FGF23 A^188, FGF23 A^222, FGF23 A^188,222, or vehicle, n=5 or 10/group, and post 3-hours the gene expression changes were studied by quantitative real time PCR for target genes, FIG. 5B represents measurement of Cyp24a1, FIG. 5C represents measurement of Cyp27b1, and FIG. 5D represents measurement of Egr1. The data is presented as a scatter plot where each dot represents one animal, mean ±SEM. One-way ANOVA with Tukey's comparison was employed for statistical analyses where***P<0.001 vs. vehicle; #P<0.05, ##P<0.01, ###P<0.001 vs FGF23; and $$$P<0.001 vs FGF23 A^188,222 was calculated.
Whether FGF23-based agonism can employ each of the two KL-interaction sites as witnessed in the C72 peptide antagonist was studied. To do so, a selective mutation at position Asp188 or Asp222 was made in the native FGF23. […] This is consistent with prior reports where C-terminal sequence deletion after residue 205 position had no apparent effect on cellular signaling (FIG. 5A, Table 3). […] Asp188 residue is purported to be singularly essential for KL-binding and FGF23 activity, and its importance was substantiated by the lack of antagonism when the C26 peptide was similarly mutated from Asp to Ala (FIG. 4A). […] To confirm that these observations were not resulting from unexpected changes in higher order structure that was not apparent in biosynthesis, purification, or formulation of the mutant proteins their biophysical integrity were directly assessed by thermal denaturation.
The N-terminal domain of the endocrine FGFs primarily determines the FGFR-activation while the C-terminal sequence guides the co-receptor specificity with a Klotho co-receptor, KL or KLB. The receptor complex specificity among the endocrine FGF-proteins can be modulated by altering their C-terminal domains. Consequently, two FGF21-23 chimeric protein analogs were prepared containing the FGF21 N-terminal core with its C-terminal KLB-binding peptide replaced with an FGF23 C-terminal peptide sequence constituted by C72 (FGF21-23 C72) or C26 (FGF21-23 C26) (Table 3).

[3] = tested on: FGFR/KL-downstream targets Cyp24a1, Cyp27b1 and Egr1; assay: Mouse kidney gene expression after FGF23 protein analogs (quantitative real time PCR); format: in vivo; details: WT mice, 0.5 mg/kg, 3 hours
Protocol: as §1
To test whether C28 as the second KL-interaction site can promote FGF23 in vivo activity, the single site FGF23-analogs were assessed for their ability to alter kidney gene expression in normal mice. Four proteins (FGF23, FGF23 A188, FGF23 A222 or FGF23 A188, 222 analogs) were each dosed to mice 0.5 mg/kg and 3 hours later quantitative real time PCR was employed to assess kidney mRNA expression of the FGFR/KL-downstream targets Cyp24a1, Cyp27b1 and early growth response protein 1 (Egr1). […] This is not surprising since the optimal treatment time for Egrl modulation is as early as 1 hour for FGF-signaling measurements. The magnitude in upregulation of gene expression for Cyp24a1 was the highest, with twenty-fold induction by native FGF23 treatment (FIG. 5B). […] Similarly, the Egrl induction is reduced for FGF23 A188 and FGF23 A222 analogs as compared to native FGF23 (P<0.05, FIG. 5D), but no difference is observed among the analogs and FGF23 for Cyp27b1 (FIG. 5C).

[4] = Table 2, block of FGF23-signaling
[5] = Table 1, block of FGF23-signaling

ASDPLGVVRPRARM [Peptide 11]
IC50 [1, 4]: 17.1 ± 0.6 nM

DPLGVVRPRARM [Peptide 12]
IC50 [1, 4]: 70.9 ± 29.5 nM

DPLNVLKPRARM [Peptide 9]
IC50 [1, 4]: 542 ± 282 nM

ERDPLNVLKPRARM [Peptide 8]
IC50 [1, 4]: 97 ± 30.3 nM

I: SAEDDSERDPLNVLKPRARMTPAPASGPEGC / II: SAEDDSERDPLNVLKPRARMTPAPASGPEGC (disulfide I:31-II:31) [Peptide 17]
enhancement of FGF23-antagonistic potency of dimer compared to corresponding monomers ([1]; fold): approximately twenty to fifty-fold

I: SAEDNSPMASAPLGVVRPRARMTHAGGTGPEGC / II: SAEDNSPMASDPLGVVRPRARMTHAGGTGPEGC (disulfide I:33-II:33) [Peptide 22]
FGF23-antagonist activity (in words) [1]: reduced in potency relative to C72 and peptide 20

I: SAEDNSPMASDPLGVVRGGRVNTHAGGTGPEGC / II: SAEDDSERDPLNVLKPRARMTPAPASGPEGC (disulfide I:33-II:31) [Peptide 19]
FGF23-antagonist activity (in words) [1]: indistinguishable from the activity of the two homodimers | enhancement of FGF23-antagonistic potency of dimer compared to corresponding monomers ([1]; fold): approximately twenty to fifty-fold

I: SAEDNSPMASDPLGVVRGGRVNTHAGGTGPEGC / II: SAEDNSPMASDPLGVVRGGRVNTHAGGTGPEGC (disulfide I:33-II:33) [Peptide 18]
enhancement of FGF23-antagonistic potency of dimer compared to corresponding monomers ([1]; fold): approximately twenty to fifty-fold

I: SAEDNSPMASDPLGVVRPRARMTHAGGTGPEGC / II: SAEDNSPMASDPLGVVRPRARMTHAGGTGPEGC (disulfide I:33-II:33) [Peptide 20]
FGF23-antagonist activity (in words) [1]: equal to that of C72; also recorded: no greater potency than C72

PMASDPLGVVRPRARM [Peptide 10]
IC50 [1, 4]: 3.8 ± 0.9 nM

SAEDDSERAPLNVLKPRARMTPAPASCSQELPSAEDNSPMASAPLGVVRGGRVNTHAGGTGPEGCRPFAKFI [C72 A1A2, FGF23^180-251, A^188,222]
FGF23-antagonist activity (in words) [1]: complete loss of activity

SAEDDSERAPLNVLKPRARMTPAPASCSQELPSAEDNSPMASDPLGVVRGGRVNTHAGGTGPEGCRPFAKFI [C72 A1, FGF23^180-251, A^188]
IC50 [1, 5]: 24.5 ± 11.5 nM | reduction in inhibitory potency relative to C72 ([1]; fold): more than twenty-fold

SAEDDSERDPLNVLKPRARMTPAPASCSQELPSAEDNSPMASAPLGVVRGGRVNTHAGGTGPEGCRPFAKFI [C72 A2, FGF23^180-251, A^222]
IC50 [1, 5]: 33.1 ± 15.8 nM | reduction in inhibitory potency relative to C72 ([1]; fold): more than twenty-fold

SAEDNSPMASDPLGVVRGGRVNTHAGGTGPEGCRPFAKFI [C40]
enhancement of antagonistic potency relative to C28 ([1]; fold): two to three-fold

B1: FGF21: FGF21^29-209 (protein)
chain: HPIPDSSPLLQFGGQVRQRYLYTDDAQQTEAHLEIREDGTVGGAADQSPESLLQLKALKPGVIQILGVKTSRFLCQRPDGALYGSLHFDPEACSFRELLLEDGYNVYQSEAHGLPLHLPGNKSPHRDPAPRGPARFLPLPGLPPALPEPPGILAPQPPDVGSSDPLSMVGPSQGRSPSYAS
FGF23-type agonism / FGFR/KL activation (in words) [2]: unable to activate

B2: FGF23^180-251: SAEDD SER-- DPLNV LKPRA RMTPA PAS CSQELP SAEDNSPMASDPLGVVRGGRVNTHAGGT GPEGC RPFAKFI (peptide)
chain: SAEDDSERDPLNVLKPRARMTPAPASCSQELPSAEDNSPMASDPLGVVRGGRVNTHAGGTGPEGCRPFAKFI
IC50 [1, 5]: 1.2 nM | enhancement of antagonistic potency relative to C26 ([1]; fold): seventy | enhancement of antagonistic potency relative to C28 ([1]; fold): thirty-fold

B3: FGF23 A^222: FGF23^25-240, A^222 (protein)
chain: YPNASPLLGSSWGGLIHLYTATARNSYHLQIHKNGHVDGAPHQTIYSALMIRSEDAGFVVITGVMSRRYLCMDFRGNIFGSHYFDPENCRFQHQTLENGYDVYHSPQYHFLVSLGRAKRAFLPGMNPPPYSQFLSRRNEIPLIHFNTPIPRRHTRSAEDDSERDPLNVLKPRARMTPAPASCSQELPSAEDNSPMASAPLGVVRGGRVNTHAGGTG
FGF23-type agonism / FGFR/KL activation (in words) [2]: comparable potency to native protein | EC50 ([2]; Table 3, p-Erk): 0.29 ± 0.12 nM | kidney Cyp24a1 mRNA expression vs vehicle [3]: significant elevation | kidney Cyp27b1 mRNA expression vs vehicle [3]: coordinate suppression | Egr1 induction as compared to native FGF23 ([3]; kidney): reduced | magnitude of Cyp24a1 effect as compared to native FGF23 ([3]; kidney): fractionally reduced

— patent publication US20230382966A1, “NOVEL KLOTHO INTERACTION SITE IN THE C-TERMINUS OF FGF23” (INDIANA UNIVERSITY RESEARCH AND TECHNOLOGY CORPORATION, priority 2020, published 2023)
